These results are taken from patent US12697317B2 (priority 2019, dated 2026).

The term half-life denotes the time in which the quantity being followed falls by half. A low value points to fast loss.

A short description of data set [1]: Population PK modeling of PAA, Studies 2, 3 and 5. Type of data set: in vivo, human. The protocol: (§1) Both non-compartmental analysis and population PK analysis were conducted to identify factors attributing to the PK of PAA, ORN, and PAGN. Ethnicity factor on the PK of PAA was explored using the PK data from Caucasian, Chinese, and Japanese healthy subjects in Studies 1 and 4.
Hepatic impairment also altered PAA plasma exposure. To identify the factors contributing to PAA plasma exposure, population PK modeling was conducted. A one-compartment model with Michaelis-Menten kinetics describing the formation of PAGN from PAA adequately quantified PAA plasma concentration profiles in healthy subjects and patients. Body weight was identified as a significant covariate for the PK of PAA in both healthy subjects and patients. Other factors such as ethnicity and hepatic/renal impairment on the PK of PAA are described below.

Data set [2] is described as follows: Plasma exposure by baseline creatinine clearance group (FIG. 1; Studies 2, 3 and 5). How it is done:
Renal dysfunction is expected to elevate PAGN plasma concentrations. AE data from subjects with severe renal impairment were summarized. […] CLcr of 35 mL/min was chosen as a cut-off value in order to have relatively sufficient sample size for the group with relatively worse renal function.

Data set [3] is described as follows: Safety/tolerability of LOPA in patients with stable cirrhosis, Study 2. Conditions: Study 2, FIG. 3. The protocol: (§2) Pharmacokinetics Analysis
(§3) Adverse events (AEs) were assessed and coded using the Medical Dictionary for Regulatory Activities (MedDRA) preferred term and system organ class.
(§4) The evaluation of potential correlation between central nervous system (CNS) AEs and PAA exposure was conducted on data from Studies 1-3. The first reported drug-related CNS AE was included in the analysis. For each such CNS AE, two PAA concentrations were identified based on the time of onset of the AE and the time of PAA assessment: (1) the closest PAA concentration before the onset of the AE; and (2) the closest PAA concentrations after the onset of the […] All time points were calculated relative to the start of study drug infusion.

A short description of data set [4]: Safety of LOPA in hospitalized patients with cirrhosis, hyperammonemia and acute HE, Study 3. Conditions: hospitalized patients with hyperammonemia and an acute episode of HE. The protocol: as §2, §3, §4
The nature of data set [5]: Safety/tolerability of LOPA in healthy subjects (SAD/MAD), Study 1. Conditions: Study 1, healthy subjects, FIG. 2. How it is done:
as §2, §3, §4

A short description of data set [6]: Steady state plasma PAA in hospitalized patients with cirrhosis and HE, Study 3. In kind it is in vivo, human. The following applies: for median concentration of PAA at steady state: Study 3, Child-Pugh C patients. How it is done:
as §2, §1

A short description of data set [7]: clinical. Conditions: human, in vivo, iv.
Method: (§5) Plasma concentrations of ORN, PAA, PAGN, and urine concentrations of PAGN were measured using a validated LC-MS/MS method.
Hepatic dysfunction on PAA PK was investigated using the PK data from patients in Studies 2 and 3. Renal dysfunction on PAA and PAGN plasma exposure was explored using the PK data from Studies 2, 3 and 5.
Data set [8] is described as follows: PK of PAA, ORN and PAGN in severe renal impairment vs normal renal function, Study 5.
Method: Seven subjects with severe renal impairment and seven age, sex, and weight-matched subjects with normal renal function participated, wherein 5 males and 2 females participated in both groups.
as §5
The mark [9] stands for this setting: normal renal function, LOPA 15 g/24 hour IV.
The mark [10] stands for this setting: severely impaired renal function, LOPA 7 g/24 hours IV.

Take `O=C(O)Cc1ccccc1` [PAA, phenylacetic acid]: the “impact of renal dysfunction on the exposure of PAA” value in [1] (mild, moderate or severe renal dysfunction, population PK analysis) is reported as “insignificant impact”. Besides, the “PAA exposure at steady state, Child-Pugh C higher than Child-Pugh B” value in [1] (population PK model, same body weight) was 36%. Besides, the “PAA plasma concentrations, CLcr ≤35 mL/min group vs >35 mL/min group” value in [2] was “no difference”. Moreover, in data set [3], the “PAA concentrations vs CNS AE occurrence” value was “No correlation”. For the same compound, the “PAA exposure related neurotoxicity” value in data set [4] was “No PAA exposure related neurotoxicity”. Moreover, the “severity of CNS AEs vs PAA plasma concentrations” value in data set [5] is on record as “appeared to be correlated”. The results for the “median concentration of PAA at steady state” value in data set [6] (10 g/24 hr (n=23)) and in data set [6] (15 g/24 hr (n=38)) were 118 µg/mL and 120 µg/mL, respectively. In addition, the “plasma PAA concentration at steady state, higher in Child-Pugh C than Child-Pugh B patients” value in [6] (Study 3, LOPA 15 g/24 h, during infusion period) is on record as “approximately 35%”. Moreover, the half-life was 0.65 h in data set [7] (3 g/4 h), 5.99 h in data set [7] (30 g/4 h), 1.25 h in data set [7] (30 g/24 h) and 4.09 h in data set [7] (60 g/24 h). The “PAA PK: increase in Cmax and AUC with dose” value (IV LOPA from 10 g/4 h or 20 g/24 h up, healthy subjects and subjects with stable cirrhosis) was “greater than dose-proportional increase”. The “Recovered PAA as unchanged compound in urine” value (after IV LOPA) is < 1 % of the administered dose of PAA. In addition, the “mean dose normalized PAA AUCt” value was determined as 54.9 µg·h/mL/g in [8] (setting [9]) and 45.4 µg·h/mL/g in data set [8] (setting [10]). Moreover, the figures for the “mean dose normalized PAA Cmax” value in data set [8] (setting [9]) and in [8] (setting [10]) were 2.61 µg/mL/g and 1.58 µg/mL/g, respectively.
